# In patent publication US20100048713A1, “COMPOUNDS ACTING ON THE SEROTONIN TRANSPORTER” (Aarhus Universitet, priority 2006, published 2010):
# What was measured:
# [1] = biological target: T1, hSERT (Homo sapiens, UniProt P31645); assay: Binding of [3H]-citalopram to membrane preparations; details: 35 nM [3H]-citalopram, 60 min RT
# T1 construct: expressed in transfected cells; the general 96-well protocol names Cos-1
# Method: (§1) 17.5 μl Fugene-6 (Roche Molecular Biochemicals) were mixed with 280 μl Dulbecco's modified Eagle's medium, and incubated at room temperature for 5 minutes. 10 μg of plasmid were added and the mixture was further incubated at least 15 minutes. […] Prior to harvesting the dish was rinsed in PBS. Cells were harvested with a cell scraper in buffer 1 (50 mM Tris-base, 150 mM NaCl, 20 mM EDTA, pH 7.4). After centrifugation (3000 g at 4° C. for 10 mins), cells were suspended and homogenized with an IKA Ultra-Turrax from Rose Scientific Ltd (Edmonton, Alberta, Canada) for 20 s in buffer 1. Membranes were pelleted by ultracentrifugation (12 000 g at 4° C. for 15 min) and homogenization was repeated in buffer 1. Finally, after ultracentrifugation (12000 g, 4° C., 15 min) membranes were resuspended in 1 ml buffer 3 (50 mM Tris-base, 120 mM NaCl, 5 mM KCl, pH 7.4) and stored at −80° C.
# A dilution series of the allosteric ligand was prepared in buffer 3 containing 70 nM [^3H]-citalopram. […] The mixture was incubated under moderate agitation at RT for 60 min. Reactions were terminated by filtration through GF/C glass-fibre filters (Unifilter, Perkin Elmer Life Sciences), preincubated with 40 μl 0.5 % polyethyleneimine, using a Pachard Bell cell harvester, and subsequently washed three times with water. Filters were soaked in 40 μl Microscint 20 scintillation liquid (Pachard Bell). Bound radioactivity was determined by direct counting of plates using a Packard Bell microplate scintillation counter. Displacing curves were obtained by plotting residual binding vs. log concentration of the displacing ligand.
# [2] = biological target: T1, hSERT; assay: Dissociation assay with [3H]-citalopram and hSERT membrane preparations; format: binding; details: for Stabilises dissociation of [3H]-citalopram: own effect (10 uM fluoxetine) (concentration which affects dissociation): 10 uM fluoxetine in dissociation buffer; for Stabilises dissociation of [3H]-citalopram: 15 uM citalopram (concentration which affects dissociation): 15 uM citalopram in dissociation buffer
# Method: as §1
# Dissociation assay with [^3H]-citalopram and membrane preparations SERT-[^3H]-citalopram complex was formed by incubating hSERT membrane preparation and radioligand in buffer 3 during a 60 min incubation at 4° C. Radioligand was present at a concentration 10 times the Kd value. The time kinetic of dissociation was followed by adding 10 μL complex solution to 250 μL buffer 3 in 96-well plates and incubating subsequently for increasing time intervals at RT. Reactions were terminated by filtration through GF/C glass-fibre filters (Unifilter, Perkin Elmer Life Sciences), preincubated with 40 μl 0.5 % polyethyleneimine, using a Pachard Bell cell harvester, and subsequently washed three times with water. Filters were soaked in 40 μl Microscint 20 scintillation liquid (Pachard Bell). Bound radioactivity was determined by direct counting of plates using a Packard Bell microplate scintillation counter. Dissociation curves were obtained by plotting residual binding vs. time of dissociation.
# The interaction of the allosteric ligand with the allosteric mechanism used by citalopram was studied by combining allosteric ligand and citalopram in the dissociation buffer. The interaction of the allosteric ligand with the radioligand was studied by combining the allosteric ligand and fluoxetine in the dissociation buffer.
# (§2) Dissociation of [^3H]-citalopram from the serotonin transporter has been studied using membrane preparations from SERT-expressing cells. The off-rates of the radioligand were measured in the presence/absence of a fixed concentration of allosteric ligand. […] Additionally, the allosteric impact on the radioligand in the absence of citalopram, was studied by combining 10 μM fluoxetine and 200/2000 μM allosteric ligand in the dissociation buffer. […] The cells were incubated for 10 minutes before the assay was terminated by washing in PBSCM.
# [3] = biological target: T1, hSERT; assay: Binding assay on whole cells transfected with hSERT ([3H]-citalopram displacement); details: for EC50: whole cell assay, 35 nM [3H]-citalopram, 60 min room temperature, table title: 45 min preincubation
# Method: The pcDNA3 plasmid vector containing the hSERT gene was used for transfection (see FIG. 6).
# (§3) The 96-well plate was washed with PBSCM to remove DMEM prior to the assay. […] The plate was subsequently incubated for 60 min at room temperature. The assay was terminated by washing once with PBSCM. The amount of accumulated [^3H]-citalopram was determined by solubilizing cells in scintillant (MicroScint 20) with direct counting of plates in a Packard TopCounter. Data was analyzed by GraphPad software.
# [4] = biological target: T1, hSERT; assay: 5-HT uptake assay, 10 min incubation without preincubation; format: cell-based; details: 75 nM [3H]-5-HT, no preincubation
# Method: Cells were grown for 48 h to confluency, and prior to uptake assay, plates were washed in PBSCM. All washing steps were carried out in an automatic plate washer. […] The assay was terminated by washing with PBSCM. The amount of accumulated [^3H]-5HT was determined by solubilizing cells in scintillant (MicroScint 20) with direct counting of plates in a Packard TopCounter. Data was analyzed by GraphPad software.
# as §2
# [5] = biological target: T1, hSERT; assay: 5-HT uptake assay with preincubation (whole cells); format: cell-based; details: whole cell assay with preincubation (title 45 min, text 60 min), 75 nM [3H]-5-HT, 10 min
# Method: 7 μl Fugene-6 was mixed with 112 μl Dulbecco's modified Eagle's medium, and incubated at room temperature for 5 minutes. 4 μg of plasmid were added and the mixture was further incubated at least 15 minutes. Cos-1 cells were trypsinized and suspended in growth media, and the plasmid/Fugene-6 mixture was added followed by dispersion into a 96-well plate.
# as §3, with “assay. 50 μl PBSCM containing increasing concentrations of allosteric ligand were added to each well, and incubated for 60 min at room temperature under moderate agitation.” for “assay.”, “10” for “60”, “[^3H]-5-HT” for “[^3H]-citalopram”
# We tested the allosteric ligands for their ability to inhibit/activate 5-HT-uptake in the whole-cell assay after 60 minutes preincubation.
# [6] = biological target: T1, hSERT; assay: Binding of [125I]-RTI-55 in whole cell assay, hSERT; details: displacement of [125I]-RTI-55
# From the text: RTI-55 was used to test for the compounds of the present invention to act as displacers of cocain.
# (§4) Because RTI-55 (and cocaine) acts as inhibitors of SERT and DAT, we also performed the binding assay in cells transfected with human DAT.
# [7] = biological target: T2, hDAT (Homo sapiens, UniProt Q01959); assay: Binding of [125I]-RTI-55 in whole cell assay, cells transfected with human DAT; details: displacement of [125I]-RTI-55
# T2 construct: expressed in transfected cells
# From the text: A binding assay as described in example 2, wherein the cocaine analogue [^125I] RTI-55 was used to test for the compounds of the present invention to act as displacers of cocain.
# as §4
# T2 sequence (Q01959 whole entry): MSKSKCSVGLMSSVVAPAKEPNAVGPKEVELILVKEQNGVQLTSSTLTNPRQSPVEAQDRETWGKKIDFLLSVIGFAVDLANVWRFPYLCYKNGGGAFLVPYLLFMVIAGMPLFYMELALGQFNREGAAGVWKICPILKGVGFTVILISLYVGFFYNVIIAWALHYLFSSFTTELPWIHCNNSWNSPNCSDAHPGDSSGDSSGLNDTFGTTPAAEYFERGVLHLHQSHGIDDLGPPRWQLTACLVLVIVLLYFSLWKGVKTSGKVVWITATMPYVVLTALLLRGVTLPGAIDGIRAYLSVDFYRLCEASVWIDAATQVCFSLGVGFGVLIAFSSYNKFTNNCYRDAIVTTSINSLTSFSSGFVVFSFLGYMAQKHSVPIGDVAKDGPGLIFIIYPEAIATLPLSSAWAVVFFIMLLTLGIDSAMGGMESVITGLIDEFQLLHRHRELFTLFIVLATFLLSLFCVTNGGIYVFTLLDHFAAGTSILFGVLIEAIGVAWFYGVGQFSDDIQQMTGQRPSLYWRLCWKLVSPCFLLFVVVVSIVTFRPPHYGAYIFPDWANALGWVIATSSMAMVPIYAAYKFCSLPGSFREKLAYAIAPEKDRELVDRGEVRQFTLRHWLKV
# T1 sequence (P31645 whole entry): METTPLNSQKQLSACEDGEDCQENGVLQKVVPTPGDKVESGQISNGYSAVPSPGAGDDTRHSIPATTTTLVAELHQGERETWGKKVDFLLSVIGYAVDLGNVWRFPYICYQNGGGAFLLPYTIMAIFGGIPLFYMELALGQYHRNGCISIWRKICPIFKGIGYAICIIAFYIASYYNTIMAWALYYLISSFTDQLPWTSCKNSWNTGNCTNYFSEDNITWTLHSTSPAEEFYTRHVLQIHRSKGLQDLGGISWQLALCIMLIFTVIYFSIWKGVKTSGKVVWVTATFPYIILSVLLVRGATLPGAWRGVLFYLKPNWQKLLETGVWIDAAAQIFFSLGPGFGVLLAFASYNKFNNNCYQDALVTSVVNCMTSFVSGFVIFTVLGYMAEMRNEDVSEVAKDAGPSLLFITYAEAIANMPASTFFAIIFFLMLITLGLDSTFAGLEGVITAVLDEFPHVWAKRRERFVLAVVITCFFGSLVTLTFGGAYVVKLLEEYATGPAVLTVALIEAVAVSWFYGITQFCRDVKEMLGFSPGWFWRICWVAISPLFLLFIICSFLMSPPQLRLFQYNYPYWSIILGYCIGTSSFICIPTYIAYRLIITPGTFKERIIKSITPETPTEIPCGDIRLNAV
SMILES,Binding of [3H]-citalopram (Bmax) [1],Stabilises dissociation of [3H]-citalopram: own effect (10 uM fluoxetine) (concentration which affects dissociation) [2],Stabilises dissociation of [3H]-citalopram: 15 uM citalopram (concentration which affects dissociation) [2],EC50 [3],5-HT uptake (effect) [4],IC50 [5],"displacement of the radioligand (FIG. 3) ([3]; increasing concentrations, 60 minutes incubation at room temperature)",EC50 [6],EC50 [7],concentration that increases the allosteric impact on dissociation by 15 μM citalopram (FIG. 7) ([2]; 15 μM citalopram),5-HT uptake (effect) ([4]; listed as PefaCl)
[C-]#[N+]CS(=O)(=O)c1ccc(C)cc1 [TS15],No effect,2000 µM,2000 µM,> 2000 µM,No effect,> 2000 µM,–,–,–,–,–
Nc1cccc2cccc(S(=O)(=O)O)c12 [TS11],–,–,–,–,–,> 2000 µM,–,–,–,–,–
COS(=O)(=O)c1ccc(C)cc1 [TS6],No effect,No effect,2000 µM,> 2000 µM,Increase,> 2000 µM,–,–,–,–,–
Cc1ccc(S(=O)(=O)N(C)N=O)cc1 [TS13],displace,200 µM,200 µM,> 2000 µM,Increase,> 2000 µM,–,–,–,–,–
"O=S(=O)(Cl)c1ccccc1 [BSC, benzenesulfonyl chloride]",No effect,–,3000 µM,–,Increase,–,–,–,–,–,–
N#Cc1cccc2ccccc12 [TS21],–,–,–,> 2000 µM,–,60 µM,–,–,–,–,–
NC(=O)c1ccccc1 [TS10],–,–,–,> 2000 µM,–,1150 µM,–,–,–,–,–
Nc1cccc2c(N)cccc12 [TS19],–,–,–,950 µM,–,422 µM,displaces the radioligand,–,–,–,–
Nc1ccc(S(=O)(=O)O)c2ccccc12 [TS12],–,–,–,523 µM,–,–,–,269 µM,212 µM,–,–
"CCOS(=O)(=O)c1cccc2ccccc12 [1-NSC react. EtOH, 1-Naphthalene sulfonic acid ethyl ester]",Displace,300 µM,300 µM,533 µM,Inhibition,110 µM,–,462 µM,–,–,–
O=P(O)(O)c1ccccc1 [TS4],–,–,–,> 2000 µM,–,> 2000 µM,–,–,–,–,–
Nc1c(O)cc(S(=O)(=O)O)c2ccccc12 [TS16],–,–,–,54 µM,–,453 µM,–,1.1 µM,2.9 µM,–,–
O=C(O)c1c(O)ccc2ccccc12 [TS28],–,–,–,276 µM,–,> 2000 µM,–,510 µM,288 µM,–,–
OB(O)c1ccccc1 [TS3],–,–,–,1420 µM,–,735 µM,–,> 2000 µM,> 2000 µM,–,–
CC(=O)c1ccccc1 [TS9],–,–,–,990 µM,–,> 2000 µM,–,> 2000 µM,> 2000 µM,–,–
Cc1ccc2ccccc2c1[N+](=O)[O-] [TS23],–,–,–,1020 µM,–,15.9 µM,–,–,–,–,–
Cc1ccc(S(N)(=O)=O)cc1 [TS1],No effect,2000 µM,200 µM,> 2000 µM,Increase,> 2000 µM,–,–,–,2000 µM,–
O=[N+]([O-])c1cccc2ccccc12 [TS22],No effect,200 µM,200 µM,> 2000 µM,Inhibition,2.9 µM,–,–,–,–,–
CN(C)c1cccc2c(S(=O)(=O)Cl)cccc12 [TS7],–,–,–,1390 µM,–,> 2000 µM,–,–,–,–,–
"NCCc1ccc(S(=O)(=O)Cl)cc1 [PefaCI, 4-(2-Aminoethyl)benzenesulfonyle cloride]",No effect,2000 µM,2000 µM,1650 µM,Increase,–,–,–,–,–,increases 5-HT uptake
Clc1cccc2ccccc12 [TS20],No effect,200 µM,200 µM,> 2000 µM,Inhibition,373 µM,–,–,–,–,–
O=S(=O)(Cl)Cc1ccccc1 [PMSC],No effect,–,No effect,–,Increase,–,–,–,–,–,–
O=[N+]([O-])c1ccc(F)c2ccccc12 [TS25],–,–,–,> 2000 µM,–,25.9 µM,–,–,–,–,–
O=S(=O)(c1ccccc1)c1ccccc1 [TS5],–,–,–,> 2000 µM,–,> 2000 µM,–,–,–,–,–
Nc1cccc2ccccc12 [TS18],–,–,–,1030 µM,–,458 µM,–,–,–,–,–
O=C(O)c1ccc2ccccc2c1O [TS27],–,–,–,185 µM,–,275 µM,–,220 µM,138 µM,–,–
C=CS(=O)(=O)c1ccccc1 [TS17],No effect,2000 µM,2000 µM,1050 µM,–,> 2000 µM,–,–,–,–,–
